Data on 1 compound can be found in patent publication US11613560B2, “Bicyclic peptide ligands specific for OX40” (BicycleTx Limited, priority 2019, dated 2023).

In this experiment the target is T1, OX40 (Homo sapiens, UniProt P43489).
T1 construct: host or cells: OX40 Jurkat cells (NF-kB luciferase reporter)
T1 sequence (P43489 29-277): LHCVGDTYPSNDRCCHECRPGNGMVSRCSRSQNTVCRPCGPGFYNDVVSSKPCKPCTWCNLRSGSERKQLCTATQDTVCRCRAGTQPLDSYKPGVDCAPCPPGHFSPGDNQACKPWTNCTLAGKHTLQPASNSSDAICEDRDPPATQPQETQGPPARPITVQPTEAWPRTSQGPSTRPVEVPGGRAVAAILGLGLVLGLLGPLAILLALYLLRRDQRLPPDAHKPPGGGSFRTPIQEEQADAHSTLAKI
As to the kind of experiment: Promega OX40 cell-activity assay (NF-κB luciferase read-out in OX40 Jurkat cells). It is filed as cell-based. The note with it: synthetic OX40 tetramer, FIG. 1.

Method: Promega have developed an OX40 cell-activity assay that uses NF-κB luciferase luminescence as a read-out of OX40 activation in Jurkat cells (Promega CS197704). On the day of the experiment, prepare medium by thawing FBS and adding 5% FBS to RPMI-1640. Thaw OX40 Jurkat cells in the water-bath and then add 500 μl cells to 11.5 ml pre-warmed 5 FBS RPMI-1640 medium. Add 60 μl cells/well to white cell culture plates. Proceed to dilute agonists at concentration giving the maximum fold induction and then titrate down the amount in a sterile 96 well-plate. […] Prepare enough reagent for duplicate samples and then perform ⅓ dilution series or 1/10 dilution series. Include positive control OX40L trimer (R&D systems #1054-OX-010) and negative control monomeric peptide. Add 20 μl of agonist as duplicate samples or 5% FBS RPMI-1640 alone as background control.
Co-incubate cells together with agonists for 5 hours at 37° C., 5% CO2. After 5 hours, thaw Bio-Glo™ and develop the assay at room-temperature. Add 80 μl Bio-Glo™ per well and incubate 5-10 min. Read luciferase signal on CLARIOStar plate-reader using the MARS program and normalize the fold induction relative to background (medium alone). Analyse data by transforming the data to x=log (X), then plot log (agonist) vs. response variable slope (4 parameters) to calculate EC50 values.

For `CC(C)C[C@@H]1NC(=O)[C@@H](NC(=O)[C@H](C)N)CSCCC(=O)N2CN3CN(C2)C(=O)CCSC[C@H](NC(=O)[C@@H]2CCCN2C(=O)[C@H](CO)NC(=O)[C@H](Cc2ccc(O)cc2)NC1=O)C(=O)N[C@@H](Cc1c[nH]c2ccccc12)C(=O)N[C@@H](Cc1c[nH]cn1)C(=O)N1CCC[C@H]1C(=O)N[C@@H](CC(C)C)C(=O)N[C@@H](CC(N)=O)C(=O)N[C@@H](CC(=O)O)C(=O)N[C@H](C(=O)N[C@@H](C)C(=O)N[C@@H](CCCCNC(=O)CCc1cn(CCOCCOCCOCCOCCOCCOCCOCCOCCOCCOCCOCCOCCOCCOCCOCCOCCOCCOCCOCCOCCOCCOCCOCCNC(=O)CCOCC(COCCC(=O)NCCOCCOCCOCCOCCOCCOCCOCCOCCOCCOCCOCCOCCOCCOCCOCCOCCOCCOCCOCCOCCOCCOCCOCCn2cc(CCC(=O)NCCCC[C@H](NC(=O)[C@H](C)NC(=O)[C@@H]4CSCCC(=O)N5CN6CN(C5)C(=O)CCSC[C@H](NC(=O)[C@@H]5CCCN5C(=O)[C@H](CO)NC(=O)[C@H](Cc5ccc(O)cc5)NC(=O)[C@H](CC(C)C)NC(=O)[C@@H](NC(=O)[C@H](C)N)CSCCC6=O)C(=O)N[C@@H](Cc5c[nH]c6ccccc56)C(=O)N[C@@H](Cc5c[nH]cn5)C(=O)N5CCC[C@H]5C(=O)N[C@@H](CC(C)C)C(=O)N[C@@H](CC(N)=O)C(=O)N[C@@H](CC(=O)O)C(=O)N4)C(N)=O)nn2)(COCCC(=O)NCCOCCOCCOCCOCCOCCOCCOCCOCCOCCOCCOCCOCCOCCOCCOCCOCCOCCOCCOCCOCCOCCOCCOCCn2cc(CCC(=O)NCCCC[C@H](NC(=O)[C@H](C)NC(=O)[C@@H]4CSCCC(=O)N5CN6CN(C5)C(=O)CCSC[C@H](NC(=O)[C@@H]5CCCN5C(=O)[C@H](CO)NC(=O)[C@H](Cc5ccc(O)cc5)NC(=O)[C@H](CC(C)C)NC(=O)[C@@H](NC(=O)[C@H](C)N)CSCCC6=O)C(=O)N[C@@H](Cc5c[nH]c6ccccc56)C(=O)N[C@@H](Cc5c[nH]cn5)C(=O)N5CCC[C@H]5C(=O)N[C@@H](CC(C)C)C(=O)N[C@@H](CC(N)=O)C(=O)N[C@@H](CC(=O)O)C(=O)N4)C(N)=O)nn2)COCCC(=O)NCCOCCOCCOCCOCCOCCOCCOCCOCCOCCOCCOCCOCCOCCOCCOCCOCCOCCOCCOCCOCCOCCOCCOCCn2cc(CCC(=O)NCCCC[C@H](NC(=O)[C@H](C)NC(=O)[C@@H]4CSCCC(=O)N5CN6CN(C5)C(=O)CCSC[C@H](NC(=O)[C@@H]5CCCN5C(=O)[C@H](CO)NC(=O)[C@H](Cc5ccc(O)cc5)NC(=O)[C@H](CC(C)C)NC(=O)[C@@H](NC(=O)[C@H](C)N)CSCCC6=O)C(=O)N[C@@H](Cc5c[nH]c6ccccc56)C(=O)N[C@@H](Cc5c[nH]cn5)C(=O)N5CCC[C@H]5C(=O)N[C@@H](CC(C)C)C(=O)N[C@@H](CC(N)=O)C(=O)N[C@@H](CC(=O)O)C(=O)N4)C(N)=O)nn2)nn1)C(N)=O)CSCCC3=O` [BCY12019], the “EC50 (range in words)” value is “low nanomolar range”.
